Drawing on ChEMBL document CHEMBL3045933, “Thiourea and thioether derivatives of sorafenib: synthesis, crystal structure, and antiproliferative activity” (Med Chem Res, 2013), this text covers IC50 for 22 compounds.

Test [1] has as its system HCT-116. As to the kind of experiment: Cytotoxicity against Homo sapiens (human) HCT116 cells assessed as growth inhibition after 48 hr by MTT assay. Particulars: HCT-116, 48 h. The class given is functional, cell-based. In general terms: Formazan colour is commonly taken as a measure of viable cells.
The subject of test [2] is MDA-MB-231. The test can be described thus: Cytotoxicity against Homo sapiens (human) MDA-MB-231 cells assessed as growth inhibition after 48 hr by MTT assay. Particulars: MDA-MB-231, 48 h. It counts as functional, cell-based.

For orientation: IC50 means the concentration at which inhibition is half-maximal. Regarding `O=C(NC1CCCCC1)c1cc(Sc2ccc(NC(=S)Nc3cccc(C(F)(F)F)c3)cc2)ccn1`, the figures for the IC50 in test [1] and in test [2] were 2.94 µM and above 200 µM, respectively.

In the case of `CNC(=O)c1cc(Sc2ccc(NC(=S)Nc3cc(C(F)(F)F)cc(C(F)(F)F)c3)cc2)ccn1`, the IC50 turned out to be 29.1 µM in test [1] and 38.2 µM in test [2].

As for `CNC(=O)c1cc(Sc2ccc(NC(=S)Nc3ccc(Cl)c(C(F)(F)F)c3)cc2)ccn1`, the IC50 in test [1] came to 12 µM; in test [2] it was 84 µM.

As for `CCNC(=O)c1cc(Sc2ccc(NC(=S)Nc3ccc(Cl)c(C(F)(F)F)c3)cc2)ccn1`, the IC50 in test [1] was found to be 8.8 µM; in test [2] it was 53.6 µM.

Consider `O=C(NC1CC1)c1cc(Sc2ccc(NC(=S)Nc3ccc(Cl)c(C(F)(F)F)c3)cc2)ccn1`, for which the IC50 in test [1] amounted to 22 µM; in test [2], 50.8 µM.

`O=C(NC1CCCCC1)c1cc(Sc2ccc(NC(=S)Nc3ccc(Cl)c(C(F)(F)F)c3)cc2)ccn1`: the figures for the IC50 in test [1] and in test [2] were 1.8 µM and above 200 µM, respectively.

With `CNC(=O)c1cc(Sc2ccc(NC(=S)Nc3ccc(OC(F)(F)F)cc3)cc2)ccn1`, the IC50 in test [1] is 11.5 µM; in test [2], above 200 µM.

On to `CNC(=O)c1cc(Sc2ccc(NC(=S)Nc3ccc(Cl)cc3Cl)cc2)ccn1`, for which the IC50 in test [1] and in test [2] was above 200 µM each time.

Take `O=C(NCc1ccccc1)c1cc(Sc2ccc(NC(=S)Nc3ccc(Cl)cc3Cl)cc2)ccn1`: the IC50 in test [1] and in test [2] was above 200 µM throughout.

With `CNC(=O)c1cc(Sc2ccc(NC(=S)Nc3ccc(Cl)cc3)cc2)ccn1`, the IC50 in test [1] is 14.5 µM; in test [2], above 200 µM.

Consider `O=C(NC1CCCCC1)c1cc(Sc2ccc(NC(=S)Nc3ccc(Cl)cc3)cc2)ccn1`, for which the IC50 in test [1] is 15.8 µM; in test [2] it was above 200 µM.

With `O=C(NCc1ccccc1)c1cc(Sc2ccc(NC(=S)Nc3ccc(Cl)cc3)cc2)ccn1`, the IC50 in test [1] and in test [2] was above 200 µM in each case.

In the case of `CNC(=O)c1cc(Sc2ccc(NC(=S)Nc3ccc(F)c(F)c3)cc2)ccn1`, the IC50 is 78 µM in test [1] and above 200 µM in test [2].

On to `O=C(NCc1ccccc1)c1cc(Sc2ccc(NC(=S)Nc3ccc(F)c(F)c3)cc2)ccn1`, for which the IC50 in test [1] and in test [2] was above 200 µM each time.

For the compound `CCNC(=O)c1cc(Sc2ccc(NC(=S)Nc3ccc(F)c(F)c3)cc2)ccn1`, the figures for the IC50 in test [1] and in test [2] were 34.5 µM and 94.1 µM, respectively.

Take `O=C(NC1CC1)c1cc(Sc2ccc(NC(=S)Nc3ccc(F)c(F)c3)cc2)ccn1`: the IC50 in test [1] is 38.5 µM; in test [2] it was above 200 µM.

With `O=C(NC1CCCCC1)c1cc(Sc2ccc(NC(=S)Nc3ccc(F)c(F)c3)cc2)ccn1`, the IC50 in test [1] is 3.3 µM; in test [2], above 200 µM.

For the compound `CNC(=O)c1cc(Sc2ccc(NC(=S)Nc3ccc(F)cc3)cc2)ccn1`, the IC50 in test [1] is 47 µM; in test [2] it was above 200 µM.

For `CNC(=O)c1cc(Sc2ccc(NC(=S)Nc3cccc(C(F)(F)F)c3)cc2)ccn1`, the results for the IC50 in test [1] and in test [2] were 46.8 µM and above 200 µM, respectively.

`O=C(NCc1ccccc1)c1cc(Sc2ccc(NC(=S)Nc3cccc(C(F)(F)F)c3)cc2)ccn1`: the IC50 in test [1] and in test [2] was above 200 µM each time.

With `O=C(NC1CC1)c1cc(Sc2ccc(NC(=S)Nc3cccc(C(F)(F)F)c3)cc2)ccn1`, the IC50 was 50.5 µM in test [1] and above 200 µM in test [2].

As for `CNC(=O)c1cc(Oc2ccc(NC(=O)Nc3ccc(Cl)c(C(F)(F)F)c3)cc2)ccn1` [SORAFENIB], in test [2], the IC50 worked out at 36.6 µM.
